Measurements reported in patent US20260357349A1, “METHODS OF IDENTIFYING AND TREATING CANCER” (Agency for Science, Technology and Research, priority 2022, published 2026).

Tests used:
RELA = assay: Total RELA protein level after bortezomib; type: cell-based, human; conditions: bortezomib treatment
Protocol: Data are presented as median+/−25%. Lower whisker is smallest observation greater than or equal to 25% quantile-1.5*interquantile range (IQR). Upper whisker represents the largest observation less than or equal to 75%+1.5*IQR. Amount of normalized RELA protein in the c) input or d) co-immunoprecipitated with SMARCA4 from 3 independent runs. […]
Cell lines were harvested with cold RIPA lysis buffer (50 mM Tris pH 8, 150 mM NaCl, 0.1% Triton X-100, 0.5% Sodium deoxycholate, 0.1% SDS) with protease inhibitors (Roche) on ice. […] Protein concentration was measured by Pierce BCA protein assay (Life Technologies). […]

786-O cells = assay: Colony formation, 786-O isogenic cells; type: cell-based, human
Protocol: Colony formation of parental (WT) or PBRM1 knockout (KO) 786-O cells expressing shRNA against non-targeting control (NC), RELA, or NFKB1 cultured with a) 10% or b) 2% serum. c) Gene expression changes of NF-κB target genes in 786-O cells treated with 0.006 μM bortezomib (BTZ) or 0.6 µM Bay 11-7085 for 24 hours (n=3 technical replicates). * p-value<0.05 (two-sided t-test). […] A positive log fold change refers to gain in bortezomib treatment over DMSO. g) Colony formation of 786-O isogenic cells and h) NCC432 isogenic cells treated with bortezomib for a week. Tumor formation of isogenic 786-O cells (i) and NCC432 cells (j) treated with PBS control or 0.5 mg/kg bortezomib (BTZ) in NSG mice. (n=10 tumors per group for 786-O, and n=16 tumors for NCC432 PBS EV group and 12 tumors for NCC432 PBS PBRM1 group and 14 tumors for both NCC432 EV and PBRM1 BTZ groups). Data are presented as mean values+/−SEM. k) Model for the study.
Data are presented as median+/−25%. […] Data are presented as mean values+/−SD. e) Tornado plots of RELA and SMARCA4 ChIP-seq signals in parental 786-0 or PBRM1-KO 786-O cells treated with DMSO or 0.005 μM bortezomib for 9 hours. f) Kaplan-Meier curves of NSG mice bearing 786-O isogenic cells treated with PBRM1 control or 0.5 mg/kg bortezomib (WT: n=10 PBS arm, median survival=39 days; n=10 bortezomib arm, median survival=52 days, HR=4.1, p=3E-6, log rank test; KO: n=10 PBS arm, median survival=35 days, n=10 bortezomib arm, median survival=66 days, HR=4.1, p=3E-6, log rank test). g) Kaplan-Meier curves of NSG mice bearing NCC432 isogenic cells treated with PBRM1 control or 0.5 mg/kg bortezomib (EV: n=16 PBS arm, median survival=42 days; n=14 bortezomib arm, median survival=49 days, HR=2.5, p=0.0009, log rank test; PBRM1: n=12 PBS arm, median survival=55 days; n=14 bortezomib arm, median survival=58 days, HR=1.2, p=0.5, log rank test). h) 786-O PBRM1 WT or KO cells were screened against the high-specific SGC epigenetic probe collection and cell viability was measured by colony formation after 1 week of treatment relative to DMSO control. […]

With CC(C)C[C@H](NC(=O)[C@H](Cc1ccccc1)NC(=O)c1cnccn1)B(O)O [bortezomib] the “effect on total protein levels of RELA” value (RELA) was “did not significantly affect”, the reducing colony formation (786-O cells; 786-O with and without PBRM1, vs DMSO) was “reducing colony formation” and the “reduction of colony formation, PB1-deficient vs PB1-proficient isogenic cells” value (786-O cells; 786-O, a week) was “preferential reduction of colony formation”.
